Experimental data published in US20150157739A1, “Imidazo[2,1]thiazol-3-one derivatives” (Hoffmann-La Roche Inc., priority 2012, published 2015).

Tests used:
[1] = molecular target: T1, aggregated recombinant human-microtubule associated protein Tau (Homo sapiens, UniProt P10636); assay: Thiazin-red R displacement fluorescence assay on aggregated Tau; type: binding; conditions: displacement of Thiazin-red R from aggregated Tau; compound 0.3 nM to 10000 nM; 30 min room temperature; Ex 531 nm/Em 595 nm
T1 construct: Recombinant human-microtubule associated protein Tau purified from E. coli is aggregated at a concentration of 5 μM with Arachidonic Acid (100 μM) in Tris 10 mM pH8, 24 h at 37° C

[2] = molecular target: T2, aggregated synthetic Aβ40 (Homo sapiens, UniProt P05067); assay: Thiazin-red R displacement fluorescence assay on aggregated A-beta; type: binding; conditions: displacement of Thiazin-red R from aggregated Aβ40; compound 0.3 nM to 10000 nM; 30 min room temperature; Ex 531 nm/Em 595 nm
T2 construct: Synthetic Aβ40 is aggregated at a concentration of 50 μM
T2 sequence (P05067 672-711 limits assumed): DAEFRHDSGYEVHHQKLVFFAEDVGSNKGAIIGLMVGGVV

T1 sequence (P10636 whole entry): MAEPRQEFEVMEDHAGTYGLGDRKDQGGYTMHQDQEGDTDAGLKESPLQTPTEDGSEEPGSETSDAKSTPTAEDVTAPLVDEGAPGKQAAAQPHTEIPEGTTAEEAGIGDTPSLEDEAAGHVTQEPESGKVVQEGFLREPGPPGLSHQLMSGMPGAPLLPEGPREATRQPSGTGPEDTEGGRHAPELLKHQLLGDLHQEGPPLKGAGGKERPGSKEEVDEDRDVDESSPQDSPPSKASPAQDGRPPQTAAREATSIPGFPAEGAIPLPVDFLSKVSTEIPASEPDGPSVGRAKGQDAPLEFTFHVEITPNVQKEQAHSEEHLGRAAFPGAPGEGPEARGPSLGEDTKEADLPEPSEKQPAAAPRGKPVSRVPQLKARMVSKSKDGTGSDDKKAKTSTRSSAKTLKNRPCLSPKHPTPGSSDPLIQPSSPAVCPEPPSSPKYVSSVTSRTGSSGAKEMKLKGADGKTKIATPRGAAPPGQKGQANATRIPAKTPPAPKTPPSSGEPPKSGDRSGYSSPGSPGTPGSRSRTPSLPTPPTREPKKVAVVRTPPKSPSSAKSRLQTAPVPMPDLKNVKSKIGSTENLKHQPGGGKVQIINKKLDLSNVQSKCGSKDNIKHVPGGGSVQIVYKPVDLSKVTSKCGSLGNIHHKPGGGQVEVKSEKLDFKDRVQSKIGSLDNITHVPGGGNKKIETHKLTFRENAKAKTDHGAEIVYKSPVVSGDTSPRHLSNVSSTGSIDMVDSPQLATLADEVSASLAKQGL

IC50 [1] [nM]	IC50 [2] [nM]	SMILES
13	5550	COc1cc(/C=c2\sc3nc(-c4c(F)cccc4F)cn3c2=O)cc(Cl)c1O [Example 105, 2-[1-(3-Chloro-4-hydroxy-5-methoxy-phenyl)-meth-(Z)-ylidene]-6-(2,6-difluoro-phenyl)-imidazo[2,1-b]thiazol-3-one]
24	198	COc1cc(/C=c2\sc3nc(-c4ccc(F)c(C(F)(F)F)c4)cn3c2=O)cc(F)c1O [Example 42, 2-[1-(3-fluoro-4-hydroxy-5-methoxy-phenyl)-meth-(Z)-ylidene]-6-(4-fluoro-3-(trifluoromethyl)-phenyl)-imidazo[2,1-b]thiazol-3-one]
0.8	9	COc1cc(/C=c2\sc3nc(-c4cccc(CCl)c4)cn3c2=O)cc(Cl)c1O [Example 67, 2-[1-(3-Chloro-4-hydroxy-5-methoxy-phenyl)-meth-(Z)-ylidene]-6-(3-(chloromethyl)phenyl)-imidazo[2,1-b]thiazol-3-one]
46	605	Cc1cc(-c2cn3c(=O)/c(=C/c4cc(Cl)c(O)c(OCCCF)c4)sc3n2)cc(C)n1 [Example 153, 2-[1-[3-Chloro-5-(3-fluoro-propoxy)-4-hydroxy-phenyl]-meth-(Z)-ylidene]-6-(2,6-dimethyl-pyridin-4-yl)-imidazo[2,1-b]thiazol-3-one]
3	123	COc1cc(/C=c2\sc3nc(-c4cccc(C(F)(F)F)c4)cn3c2=O)cc(Cl)c1O [Example 24, 2-[1-(3-Chloro-4-hydroxy-5-methoxy-phenyl)-meth-(Z)-ylidene]-6-(3-trifluoromethyl-phenyl)-imidazo[2,1-b]thiazol-3-one]
2	18	COc1cc(/C=c2\sc3nc(-c4ccc(Cl)cc4)cn3c2=O)cc(Br)c1O [Example 7, 6-(4-Chloro-phenyl)-2-[1-(3-bromo-4-hydroxy-5-methoxy-phenyl)-meth-(Z)-ylidene]-imidazo[2,1-b]thiazol-3-one]
39	482	COc1cc(/C=c2\sc3nc(-c4ccc(N5CCOCC5)cc4)cn3c2=O)cc(Cl)c1O [Example 92, 2-[1-(3-Chloro-4-hydroxy-5-methoxy-phenyl)-meth-(Z)-ylidene]-6-(4-morpholinophenyl)-imidazo[2,1-b]thiazol-3-one]
1	7	COc1cc(/C=c2\sc3nc(-c4ccc(Cl)cc4)cn3c2=O)cc(OCCF)c1O [Example 27, 6-(4-Chloro-phenyl)-2-[1-(3-(2-fluoro-ethoxy)-4-hydroxy-5-methoxy-phenyl)-meth-(Z)-ylidene]-imidazo[2,1-b]thiazol-3-one]
6	20	C=CCOc1cccc(-c2cn3c(=O)/c(=C/c4cc(Cl)c(O)c(OC)c4)sc3n2)c1 [Example 80, 2-[1-(3-Chloro-4-hydroxy-5-methoxy-phenyl)-meth-(Z)-ylidene]-6-(3-(allyloxy)phenyl)-imidazo[2,1-b]thiazol-3-one]
3	820	COc1cc(/C=c2\sc3nc(-c4ccc(C(=O)NCCF)cc4)cn3c2=O)cc(Cl)c1O [Example 116, 4-{2-[1-(3-Chloro-4-hydroxy-5-methoxy-phenyl)-meth-(Z)-ylidene]-3-oxo-2,3-dihydro-imidazo[2,1-b]thiazol-6-yl}-N-(2-fluoro-ethyl)-benzamide]
6	25	COc1cc(/C=c2\sc3nc(-c4ccc(OCCF)cc4)cn3c2=O)cc(Cl)c1O [Example 79, 2-[1-(3-Chloro-4-hydroxy-5-methoxy-phenyl)-meth-(Z)-ylidene]-6-(4-(2-fluoroethoxyl)phenyl)-imidazo[2,1-b]thiazol-3-one]
14	898	COc1cc(/C=c2\sc3nc(-c4ccc(C(=O)O)cc4)cn3c2=O)cc(F)c1O [Example 138, 4-{2-[1-(3-Fluoro-4-hydroxy-5-methoxy-phenyl)-meth-(Z)-ylidene]-3-oxo-2,3-dihydro-imidazo[2,1-b]thiazol-6-yl}-benzoic acid]
26	437	COc1cc(/C=c2\sc3nc(-c4cccc(OC(F)(F)F)c4)cn3c2=O)cc(OC(C)C)c1O [Example 34, 2-[1-(4-Hydroxy-3-methoxy-5-isopropoxy-phenyl)-meth-(Z)-ylidene]-6-(3-trifluoromethoxy-phenyl)-imidazo[2,1-b]thiazol-3-one]
17	1230	O=c1/c(=C/c2cc(F)c(O)c(OCCCF)c2)sc2nc(-c3ccncc3)cn12 [Example 124, 2-[1-(3-Fluoro-5-(3-fluoropropoxy)-4-hydroxy-phenyl)-meth-(Z)-ylidene]-6-pyridin-4-yl-imidazo[2,1-b]thiazol-3-one]
6	16	COc1cc(/C=c2\sc3nc(-c4ccc(Cl)cc4)cn3c2=O)cc(OC(C)C)c1O [Example 30, 6-(4-Chloro-phenyl)-2-[1-(4-hydroxy-3-isopropoxy-5-methoxy-phenyl)-meth-(Z)-ylidene]-imidazo[2,1-b]thiazol-3-one]
53	437	COc1ccc(-c2nc3s/c(=C\c4cc(F)c(O)c(OC)c4)c(=O)n3c2C)cc1 [Example 15, 2-[1-(3-Fluoro-4-hydroxy-5-methoxy-phenyl)-meth-(Z)-ylidene]-6-(4-methoxy-phenyl)-5-methyl-imidazo[2,1-b]thiazol-3-one]
48	1010	COc1cc(/C=c2\sc3nc(-c4ccc(C(=O)N(C)CCF)cc4)cn3c2=O)cc(F)c1O [Example 146]
42	3890	COc1cc(/C=c2\sc3nc(-c4cccc(N5CCCC5=O)c4)cn3c2=O)cc(Cl)c1O [Example 94, 2-[1-(3-Chloro-4-hydroxy-5-methoxy-phenyl)-meth-(Z)-ylidene]-6-[3-(2-oxo-pyrrolidin-1-yl)-phenyl]-imidazo[2,1-b]thiazol-3-one]
0.3	6	COc1cc(/C=c2\sc3nc(-c4ccc(C#N)cc4)cn3c2=O)cc(Cl)c1O [Example 87, 4-{2-[1-(3-Chloro-4-hydroxy-5-methoxy-phenyl)-meth-(Z)-ylidene]-3-oxo-2,3-dihydro-imidazo[2,1-b]thiazol-6-yl}-benzonitrile]
16	1370	COc1cc(/C=c2\sc3nc(-c4cc(F)cc(F)c4)cn3c2=O)cc(Cl)c1O [Example 49, 2-[1-(3-Chloro-4-hydroxy-5-methoxy-phenyl)-meth-(Z)-ylidene]-6-(3,5-difluoro-phenyl)-imidazo[2,1-b]thiazol-3-one]
91	> 10000	COc1cc(/C=c2\sc3nc(-c4cc(C)nc(C)c4)cn3c2=O)ccc1O [Example 13, 2-[1-(4-Hydroxy-3-methoxy-phenyl)-meth-(Z)-ylidene]-6-(2,6-dimethyl-pyridin-4-yl)-imidazo[2,1-b]thiazol-3-one]

SMILES	IC50 [1] [nM]	IC50 [2] [nM]
COc1cc(/C=c2\sc3nc(-c4cccc(S(=O)(=O)F)c4)cn3c2=O)cc(Cl)c1O [Example 152, 3-{2-[1-(3-Chloro-4-hydroxy-5-methoxy-phenyl)-meth-(Z)-ylidene]-3-oxo-2,3-dihydro-imidazo[2,1-b]thiazol-6-yl}-benzenesulfonyl fluoride]	7	19
